Test results as given in patent US4820834A, “Benzodiazepine analogs” (priority 1987, dated 1989).
pIC50: −log10 of the molar value. Like-named read-outs stand apart in the source and are kept apart here.

What was measured:
[1] = target: T1, CCK receptor (brain, cerebral cortex) (Cavia porcellus, UniProt H0VZC5); test: biochemical; assay type: binding, Male Hartley guinea pigs
T1 construct: Cerebral cortex was dissected and used as a receptor source; from tissue; host or cells: guinea pig cerebral cortex membranes (male Hartley)
T1 sequence (H0VZC5 1-426): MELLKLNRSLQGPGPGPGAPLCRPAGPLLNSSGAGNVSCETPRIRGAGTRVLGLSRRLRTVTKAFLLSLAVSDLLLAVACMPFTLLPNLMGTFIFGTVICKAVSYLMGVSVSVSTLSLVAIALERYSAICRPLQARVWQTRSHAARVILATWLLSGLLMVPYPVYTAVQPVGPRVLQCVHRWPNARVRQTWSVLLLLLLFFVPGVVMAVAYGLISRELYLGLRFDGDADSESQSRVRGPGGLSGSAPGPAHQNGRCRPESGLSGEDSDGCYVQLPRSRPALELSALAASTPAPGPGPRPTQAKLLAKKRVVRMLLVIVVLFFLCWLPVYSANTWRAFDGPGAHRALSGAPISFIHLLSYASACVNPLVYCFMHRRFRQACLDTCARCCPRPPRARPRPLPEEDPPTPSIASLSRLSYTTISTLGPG
Method: 2. CCK Recepto Binding (Brain)
CCK-33 was radiolabeled and the binding was Performed according to the description for the Pancreas method with modifications according to Saito et al., J. Neurochem.
Cerebral cortex was dissected and used as a receptor source. Each gram of fresh guinea pig brain tissue was homogenized in 10 ml of Tris/Trizma buffer with a Brinkman polytron PT-10. The homogenates were centrifuged at 42,000 g for 15 minutes. Pellets were resuspended in Tris Buffer, centrifuged as above and resuspended in 200 volumes of binding assay buffer (10 mM N-2-hydroxyethyl-piperazine-N'-2-ethane sulfonic acid (HEPES), 5 mM MgCl2, 0.25 mg/ml bacitracin, 1 mM ethylene glycol-bis-(β-aminoethylether-N,N'-tetraacetic acid) (EGTA), and 0.4% bovine serum albumin (BSA)). […] All assays were run in duplicate or triplicate. The reaction mixtures were incubated at 25° C. for 2 hours and centrifuged in a Beckman Microfuge (4 minutes) immediately after adding 1 ml of ice-cold incubation buffer. The supernatant was aspirated and discarded, pellets were counted with a Beckman gamma 5000.

[2] = target: T2, Gastrin receptor (gastric glands) (Cavia porcellus, UniProt H0VZC5); test: Gastrin Receptor Binding in Guinea Pig Gastric Glands; set-up: species or system guinea pig (male Hartley)
T2 construct: The washed guinea pig gastric glands prepared as above were resuspended; from tissue; host or cells: guinea pig gastric mucosal glands (male Hartley)
T2 sequence (H0VZC5 1-426): T1 sequence (H0VZC5 1-426)

[3] = IC50 ^125 I-CCK Brain, guinea pig cerebral cortex, ^125 I-CCK-33, 25° C., 2 hours
[4] = IC50 ^125 I-Gastrin Gastric Glands, 25° C., 30 minutes
[5] = ^125 I-gastrin, 25° C., 30 minutes, read-out: IC50 ^125 I-Gastrin Gastric Glands

| Compound | pIC50 [1, 3] | pIC50 [2, 4] | also measured |
| --- | --- | --- | --- |
| O=C(NC1N=C(c2ccccc2F)c2ccccc2NC1=O)c1cc2cc(F)ccc2[nH]1 (racemic) [Example 114, 1,3-Dihydro-3-(RS)-(5-fluoroindole-2-carbonylamino)-5-(2-fluorophenyl)-2H-1,4-benzodiazepin-2-one] | 4.92 | 5.32 | – |
| O=C(NC1N=C(c2ccccc2F)c2ccccc2NC1=O)c1cc2cc(Cl)ccc2[nH]1 (racemic) [Example 118, 1,3-Dihydro-3-(RS)-(5-Chloroindole-2-carbonylamino)-5-(2-fluorophenyl)-2H-1,4-benzodiazepin-2-one] | 4.42 | < 5.00 | – |
| CN(C(=O)c1cc2ccccc2[nH]1)C1N=C(c2ccccc2)c2ccccc2NC1=O (racemic) [Example 119, 3-(RS)-[N-(2-indolecarbonyl)-N-methylamino]-1,3-dihydro-5-phenyl-2H-1,4-benzodiazepin-2-one] | 4.48 | < 5.00 | – |
| O=C(NC1N=C(c2ccccc2F)c2ccccc2NC1=O)c1cc2cc(Br)ccc2[nH]1 (racemic) [Example 120, 1,3-Dihydro-3-(RS)-(5-Bromoindole-2-carbonylamino)-5-(2-fluorophenyl)-2H-1,4-benzodiazepin-2-one] | 4.30 | < 5.00 | – |
| O=C(C=Cc1ccccc1)NC1N=C(c2ccccc2F)c2ccccc2NC1=O (racemic) [Example 121, 3-(RS)-Cinnamoylamino-1,3-dihydro-5-(2-fluorophenyl)-2H-1,4-benzodiazepin-2-one] | – | – | pIC50 ([1]; guinea pig cerebral cortex, ^125 I-CCK-33, 25° C., 2 hours; read-out: IC50 ^125 I-CCK Brain): 5.26; pIC50 [2, 5]: 5.42 |
| O=C(NC1N=C(c2ccccc2F)c2ccccc2NC1=O)c1cc2cc(O)ccc2[nH]1 (racemic) [Example 122, 1,3-Dihydro-3-(RS)-(5-hydroxy-2-indolylcarbonyl)amino-5-(2-fluorophenyl)-2H-1,4-benzodiazepin-2-one] | 4.80 | 4.54 | – |
| COc1ccc2[nH]c(C(=O)NC3N=C(c4ccccc4F)c4ccccc4NC3=O)cc2c1 (racemic) [Example 126, 1,3-Dihydro-3-(RS)-(5-methoxyindole-2-carbonylamino)-5-(2-fluorophenyl)-2H-1,4-benzodiazepin-2-one] | 4.54 | < 5.00 | – |
| Cn1c(C(=O)NC2N=C(c3ccccc3F)c3ccccc3NC2=O)cc2ccccc21 (racemic) [Example 127, 1,3-Dihydro-3-(RS)-(1-methylindole-2-carbonylamino)-5-(2-fluorophenyl)-2H-1,4-benzodiazepine-2-one] | 5.15 | 5.20 | – |
| O=C(NC1N=C(c2ccccc2F)c2ccccc2NC1=O)c1cc2ccccc2o1 (racemic) [Example 128, 1,3-Dihydro-5-(2-fluorophenyl)-3-(RS)-(2-benzofurancarbonylamino)-2H-1,4-benzodiazepin-2-one] | – | – | pIC50 ([1]; read-out: IC50 ^125 I-CCK Brain; guinea pig cerebral cortex, ^125 I-CCK-33, 25° C., 2 hours): 4.49; pIC50 ([2]; read-out: IC50 ^125 I-Gastrin Gastric Glands, 25° C., 30 minutes): 4.96 |
| CCOC(=O)CN1C(=O)C(NC(=O)c2ccc(Cl)cc2)N=C(c2ccccc2F)c2ccccc21 (racemic) [Example 129, 1-Ethoxycarbonylmethyl-1,3-dihydro-3(RS)-(4-chloro-phenylcarbonyl)amino-5-(2-fluorophenyl)-2H-1,4-benzodiazepin-2-one] | 5.72 | 6.16 | – |
| O=C(NC1N=C(c2ccccc2)c2ccccc2NC1=O)c1ccc(Cl)cc1 (racemic) [Example 130, 1,3-Dihydro-3-(RS)-(4-chlorophenylcarbonyl)amino-5-phenyl-2H-1,4-benzodiazepin-2-one] | < 4.40 | 5.09 | – |
| O=C(O)CN1C(=O)C(NC(=O)c2ccc(Cl)cc2)N=C(c2ccccc2F)c2ccccc21 (racemic) [Example 132, 1-Carboxymethyl-1,3-dihydro-3-(RS)-(4-chlorophenyl-carbonyl)amino-5-(2-fluorophenyl)-2H-1,4-benzodiazepin-2-one] | < 4.00 | 5.09 | – |
| O=C(NC1N=C(c2ccccc2F)c2ccccc2NC1=O)c1ccc(C(F)(F)F)cc1 (racemic) [Example 134, 1,3-Dihydro-5-(2-fluorophenyl)-3-(RS)-(p-trifluoro-methylbenzoylamino)-2H-1,4-benzodiazepin-2-one] | 4.40 | 5.02 | – |
| Cc1ccc(C(=O)NC2N=C(c3ccccc3F)c3ccccc3NC2=O)cc1 (racemic) [Example 135, 1,3-Dihydro-5-(2-fluorophenyl)-3-(RS)-(p-methylbenzoylamino)-2H-1,4-benzodiazepin-2-one] | < 4.40 | 5.30 | – |
| COc1ccc(C(=O)NC2N=C(c3ccccc3F)c3ccccc3NC2=O)cc1 (racemic) [Example 136, 1,3-Dihydro-5-(2-fluorophenyl)-3-(RS)-(p-methoxybenzoylamino)-2H-1,4-benzodiazepin-2-one] | < 4.40 | 5.27 | – |
| O=C(NC1N=C(c2ccccc2)c2ccccc2NC1=O)c1ccccc1Cl (racemic) [Example 137, 3-(RS)-(o-Chlorobenzoylamino)-1,3-dihydro-5-phenyl-2H-1,4-benzodiazepin-2-one] | < 4.40 | 4.28 | – |
| CN1C(=O)C(N(C)C(=O)c2ccccc2Cl)N=C(c2ccccc2)c2ccccc21 (racemic) [Example 138, 3-(RS)-(N-(o-Chlorobenzoyl)-N-methylamino)-1,3-dihydro-1-methyl-5-phenyl-2H-1,4-benzodiazepin-2-one] | 4.00 | < 4.00 | – |
| CN1C(=O)C(NC(=O)c2ccccc2Cl)N=C(c2ccccc2)c2ccccc21 (racemic) [Example 139, 3-(RS)-(o-Chlorobenzoylamino)-1,3-dihydro-1-methyl-5-phenyl-2H-1,4-benzodiazepin-2-one] | < 4.00 | – | pIC50 [2, 5]: 4.52 |
| O=C(NC1N=C(c2ccccc2)c2ccccc2NC1=O)c1cccc(Cl)c1 (racemic) [Example 140, 3-(RS)-(m-Chlorobenzoylamino)-1,3-dihydro-5-phenyl-2H-1,4-benzodiazepin-2-one] | 4.12 | 5.37 | – |
| O=C(NC1N=C(c2ccccc2)c2ccccc2NC1=O)c1ccc(Cl)c(Cl)c1 (racemic) [Example 141, 3-(RS)-(3,4-Dichlorobenzoylamino)-1,3-dihydro-5-phenyl-2H-1,4-benzodiazepin-2-one] | < 4.40 | 4.60 | – |
| CN1C(=O)C(NC(=O)c2ccc(Cl)cc2)[N+]([O-])=C(c2ccccc2F)c2ccccc21 (racemic) [Example 142, 3-(RS)-(p-Chlorobenzoylamino)-1,3-dihydro-5-(2'-fluorophenyl)-1-methyl-4-oxo-2H-1,4-benzodiazepin-2-one] | 4.74 | 5.62 | – |
| CSc1ccc(C(=O)NC2N=C(c3ccccc3)c3ccccc3NC2=O)cc1 (racemic) [Example 143, 1,3-Dihydro-5-Phenyl-3-(RS)-(4'-methylthiobenzoylamino)-2H-1,4-benzodiazepin-2-one] | 4.64 | 5.10 | – |
| O=C(NC1N=C(c2ccccc2)c2ccccc2NC1=O)c1ccc(F)cc1 (racemic) [Example 144, 1-3-Dihydro-3-(RS)-(4'-fluorobenzoylamino)-5-phenyl-2H-1,4-benzodiazeoin-2-one] | 4.37 | 5.03 | – |
| O=C(NC1N=C(c2ccccc2)c2ccccc2NC1=O)c1ccc(C(F)(F)F)cc1 (racemic) [Example 145, 1,3-Dihydro-5-Phenyl-3-(RS)-(4'-trifluoromethylbenzoylamino)-2H-1,4-benzodiazepin-2-one] | 4.19 | 4.44 | – |
| CC(C)(C)c1ccc(C(=O)NC2N=C(c3ccccc3)c3ccccc3NC2=O)cc1 (racemic) [Example 146, 1,3-Dihydro-3-(RS)-(4'-tert-butylbenzoylamino)-5-phenyl-2H-1,4-benzodiazepin-2-one] | 4.00 | 4.40 | – |
| O=C(NC1N=C(c2ccccc2)c2ccccc2NC1=O)c1cc(Cl)cc(Cl)c1 (racemic) [Example 147, 3-(RS)-(3,5-Dichlorobenzoylamino)1,3-dihydro-5-phenyl-2H-1,4-benzodiazepin-2-one] | < 4.00 | 3.74 | – |
| O=C(NC1N=C(c2ccccc2)c2ccccc2NC1=O)c1ccc(O)cc1 (racemic) [Example 148, 1-3-Dihydro-3-(RS)-(p-Hydroxybenzoylamino)-5-phenyl-2H-1,4-benzodiazepin-2-one] | 4.00 | 4.51 | – |
